Assay results from PubChem BioAssay (NCI).
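A five-concentration, 48-hour dose response in 96-well plates underlies each endpoint, interpolated linearly between surrounding concentrations. Abbreviation: GI50, concentration required for 50% inhibition of growth. TGI is the concentration that stops growth completely.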

Legend:
Experiment in all cases: NCI anticancer screen, dose series, 48 h
786-0 renal = tested on: 786-0 renal
A498 renal = tested on: A498 renal
A549 NSCLC = tested on: A549 NSCLC
ACHN renal = tested on: ACHN renal
BT-549 breast = tested on: BT-549 breast
CAKI-1 renal = tested on: CAKI-1 renal
CCRF-CEM leukemia = tested on: CCRF-CEM leukemia
COLO 205 colon = tested on: COLO 205 colon
DU-145 prostate = tested on: DU-145 prostate
EKVX NSCLC = tested on: EKVX NSCLC
HCC-2998 colon = tested on: HCC-2998 colon
HCT-116 colon = tested on: HCT-116 colon
HCT-15 colon = tested on: HCT-15 colon
HL-60(TB) leukemia = tested on: HL-60(TB) leukemia
HOP-62 NSCLC = tested on: HOP-62 NSCLC
HOP-92 NSCLC = tested on: HOP-92 NSCLC
HS 578T breast = tested on: HS 578T breast
HT29 colon = tested on: HT29 colon
IGROV1 ovarian = tested on: IGROV1 ovarian
K-562 leukemia = tested on: K-562 leukemia
KM12 colon = tested on: KM12 colon
LOX IMVI melanoma = tested on: LOX IMVI melanoma
M14 melanoma = tested on: M14 melanoma
MALME-3M melanoma = tested on: MALME-3M melanoma
MCF7 breast = tested on: MCF7 breast
MDA-MB-231 breast = tested on: MDA-MB-231 breast
MDA-MB-435 = tested on: MDA-MB-435
MOLT-4 leukemia = tested on: MOLT-4 leukemia
NCI-H226 lung = tested on: NCI-H226 lung
NCI-H23 lung = tested on: NCI-H23 lung
NCI-H460 lung = tested on: NCI-H460 lung
NCI-H522 lung = tested on: NCI-H522 lung
NCI/ADR-RES ovarian = tested on: NCI/ADR-RES ovarian
OVCAR-3 ovarian = tested on: OVCAR-3 ovarian
OVCAR-4 ovarian = tested on: OVCAR-4 ovarian
OVCAR-5 ovarian = tested on: OVCAR-5 ovarian
OVCAR-8 ovarian = tested on: OVCAR-8 ovarian
PC-3 prostate = tested on: PC-3 prostate
RPMI-8226 leukemia = tested on: RPMI-8226 leukemia
RXF 393 renal = tested on: RXF 393 renal
SF-268 CNS = tested on: SF-268 CNS
SF-295 CNS = tested on: SF-295 CNS
SF-539 CNS = tested on: SF-539 CNS
SK-MEL-2 melanoma = tested on: SK-MEL-2 melanoma
SK-MEL-28 melanoma = tested on: SK-MEL-28 melanoma
SK-MEL-5 melanoma = tested on: SK-MEL-5 melanoma
SK-OV-3 ovarian = tested on: SK-OV-3 ovarian
SN12C renal = tested on: SN12C renal
SNB-19 CNS = tested on: SNB-19 CNS
SNB-75 CNS = tested on: SNB-75 CNS
SR leukemia = tested on: SR leukemia
SW-620 colon = tested on: SW-620 colon
T-47D breast = tested on: T-47D breast
TK-10 renal = tested on: TK-10 renal
U251 CNS = tested on: U251 CNS
UACC-257 melanoma = tested on: UACC-257 melanoma
UACC-62 melanoma = tested on: UACC-62 melanoma
UO-31 renal = tested on: UO-31 renal

Structure (SMILES): CC(=C(c1ccc(OCCN(C)C)cc1)c1ccc(OCCN(C)C)cc1)c1ccc(Cl)cc1
- GI50 (786-0 renal): 591 nM
- TGI (786-0 renal): 1160 nM
- GI50 (A498 renal): 3200 nM
- TGI (A498 renal): 7810 nM
- GI50 (A549 NSCLC): 1040 nM
- TGI (A549 NSCLC): 4140 nM
- GI50 (ACHN renal): 709 nM
- TGI (ACHN renal): 1570 nM
- GI50 (BT-549 breast): 3170 nM
- TGI (BT-549 breast): 7780 nM
- GI50 (CAKI-1 renal): 652 nM
- TGI (CAKI-1 renal): 1690 nM
- GI50 (CCRF-CEM leukemia): 657 nM
- TGI (CCRF-CEM leukemia): 1840 nM
- GI50 (COLO 205 colon): 621 nM
- TGI (COLO 205 colon): 1270 nM
- GI50 (DU-145 prostate): 1380 nM
- TGI (DU-145 prostate): 4900 nM
- GI50 (EKVX NSCLC): 1660 nM
- TGI (EKVX NSCLC): 6110 nM
- GI50 (HCC-2998 colon): 617 nM
- TGI (HCC-2998 colon): 1310 nM
- GI50 (HCT-116 colon): 544 nM
- TGI (HCT-116 colon): 1110 nM
- GI50 (HCT-15 colon): 625 nM
- TGI (HCT-15 colon): 1360 nM
- GI50 (HL-60(TB) leukemia): 708 nM
- TGI (HL-60(TB) leukemia): 1640 nM
- GI50 (HOP-62 NSCLC): 3300 nM
- TGI (HOP-62 NSCLC): 8160 nM
- GI50 (HOP-92 NSCLC): 740 nM
- TGI (HOP-92 NSCLC): 3040 nM
- GI50 (HS 578T breast): 1370 nM
- TGI (HS 578T breast): 5140 nM
- GI50 (HT29 colon): 615 nM
- TGI (HT29 colon): 1490 nM
- GI50 (IGROV1 ovarian): 826 nM
- TGI (IGROV1 ovarian): 2220 nM
- GI50 (K-562 leukemia): 770 nM
- TGI (K-562 leukemia): 7710 nM
- GI50 (KM12 colon): 1450 nM
- TGI (KM12 colon): 3560 nM
- GI50 (LOX IMVI melanoma): 542 nM
- TGI (LOX IMVI melanoma): 1030 nM
- GI50 (M14 melanoma): 614 nM
- TGI (M14 melanoma): 1240 nM
- GI50 (MALME-3M melanoma): 570 nM
- TGI (MALME-3M melanoma): 1080 nM
- GI50 (MCF7 breast): 508 nM
- TGI (MCF7 breast): 1020 nM
- GI50 (MDA-MB-231 breast): 687 nM
- TGI (MDA-MB-231 breast): 1560 nM
- GI50 (MDA-MB-435): 577 nM
- TGI (MDA-MB-435): 1120 nM
- GI50 (MOLT-4 leukemia): 713 nM
- TGI (MOLT-4 leukemia): 1810 nM
- GI50 (NCI-H226 lung): 4440 nM
- TGI (NCI-H226 lung): 10000 nM
- GI50 (NCI-H23 lung): 2600 nM
- TGI (NCI-H23 lung): 7170 nM
- GI50 (NCI-H460 lung): 756 nM
- TGI (NCI-H460 lung): 1760 nM
- GI50 (NCI-H522 lung): 756 nM
- TGI (NCI-H522 lung): 2100 nM
- GI50 (NCI/ADR-RES ovarian): 951 nM
- TGI (NCI/ADR-RES ovarian): 2950 nM
- GI50 (OVCAR-3 ovarian): 756 nM
- TGI (OVCAR-3 ovarian): 2010 nM
- GI50 (OVCAR-4 ovarian): 1010 nM
- TGI (OVCAR-4 ovarian): 3100 nM
- GI50 (OVCAR-5 ovarian): 1340 nM
- TGI (OVCAR-5 ovarian): 5260 nM
- GI50 (OVCAR-8 ovarian): 1170 nM
- TGI (OVCAR-8 ovarian): 4360 nM
- GI50 (PC-3 prostate): 932 nM
- TGI (PC-3 prostate): 3260 nM
- GI50 (RPMI-8226 leukemia): 651 nM
- TGI (RPMI-8226 leukemia): 1580 nM
- GI50 (RXF 393 renal): 706 nM
- TGI (RXF 393 renal): 2080 nM
- GI50 (SF-268 CNS): 1600 nM
- TGI (SF-268 CNS): 6210 nM
- GI50 (SF-295 CNS): 653 nM
- TGI (SF-295 CNS): 1380 nM
- GI50 (SF-539 CNS): 566 nM
- TGI (SF-539 CNS): 1100 nM
- GI50 (SK-MEL-2 melanoma): 2100 nM
- TGI (SK-MEL-2 melanoma): 4820 nM
- GI50 (SK-MEL-28 melanoma): 605 nM
- TGI (SK-MEL-28 melanoma): 1130 nM
- GI50 (SK-MEL-5 melanoma): 597 nM
- TGI (SK-MEL-5 melanoma): 1090 nM
- GI50 (SK-OV-3 ovarian): 4800 nM
- TGI (SK-OV-3 ovarian): 9530 nM
- GI50 (SN12C renal): 1920 nM
- TGI (SN12C renal): 5740 nM
- GI50 (SNB-19 CNS): 1160 nM
- TGI (SNB-19 CNS): 4360 nM
- GI50 (SNB-75 CNS): 2580 nM
- TGI (SNB-75 CNS): 7600 nM
- GI50 (SR leukemia): 638 nM
- TGI (SR leukemia): 3290 nM
- GI50 (SW-620 colon): 569 nM
- TGI (SW-620 colon): 1170 nM
- GI50 (T-47D breast): 633 nM
- TGI (T-47D breast): 1410 nM
- GI50 (TK-10 renal): 4770 nM
- TGI (TK-10 renal): 9680 nM
- GI50 (U251 CNS): 631 nM
- TGI (U251 CNS): 1460 nM
- GI50 (UACC-257 melanoma): 632 nM
- TGI (UACC-257 melanoma): 1270 nM
- GI50 (UACC-62 melanoma): 576 nM
- TGI (UACC-62 melanoma): 1130 nM
- GI50 (UO-31 renal): 847 nM
- TGI (UO-31 renal): 2650 nM
